In publication PMC9569450, “Dual Effect of Tryptamine on Prostate Cancer Cell Growth Regulation: A Pilot Study” (International Journal of Molecular Sciences, 2022):
Read-outs that look alike come from different tables or passages of the source.

Experiments:
RWPE-1 cells = assay: MTT cell proliferation assay, RWPE-1; type: cell-based; conditions: for IC50: MTT, 48 h treatment in FBS-free medium, read-out: IC50 Value (Mean ± SD mM) RWPE-1
Procedure: (§1) PC-3, LNCaP, RWPE-1, HepG2, A549, and PANC-1 cells were purchased from the National Collection of Authenticated Cell Cultures (Shanghai, China). […] All the above cell cultures were supplied with 10% fetal bovine serum and 1% penicillin-streptomycin. RWPE-1 cells were cultured in keratinocyte serum-free medium (K-SFM, Gibco, New York, NY, USA) supplemented with 50 mg/L bovine pituitary extract and 5 μg/L epidermal growth factor (EGF). All cell lines were grown in a humidified atmosphere of 5% CO2 at 37 °C.
(§2) Cells were seeded in 100 μL complete medium in a 96-well plate, at a density of 10,000 cells/well for LNCaP and 5000 cells/well for other cells. Cells were pre-incubated for 24 h to allow for adherence before removal of complete medium and treatment with various concentrations of compounds in fetal bovine serum (FBS)-free medium for 48 h. After treatment, 20 μL/well MTT (5 mg/mL) was added and incubated for 3–4 h at 37 °C, and then 100 μL/well DMSO was added for MTT assay. The plate was shaken on an orbital shaker for 10 min. Absorbance was measured using a microplate reader at 492 nm for the MTT assay (performed in triplicates). Cell viability was normalized to control. Half inhibitory concentration (IC50) was calculated by SPSS Statistics 17.0. […] The experiments were independently repeated two to three times.

PC-3 cells = assay: MTT cell proliferation assay, PC-3; type: cell-based, human; conditions: read-out: IC50 Value (Mean ± SD mM) PC-3
Procedure: as §1, §2

LNCaP cells = assay: MTT cell proliferation assay, LNCaP; type: cell-based; conditions: 48 h treatment in FBS-free medium, read-out: IC50 Value (Mean ± SD mM) LNCaP
Procedure: as §1, §2

A549 cells = assay: MTT cell proliferation assay, A549; type: cell-based; conditions: read-out: IC50 Value (Mean ± SD mM) A549
Procedure: as §1, §2

HepG2 cells = assay: MTT cell proliferation assay, HepG2; type: cell-based; conditions: read-out: IC50 Value (Mean ± SD mM) HepG2
Procedure: as §1, §2

PANC-1 cells = assay: MTT cell proliferation assay, PANC-1; type: cell-based; conditions: read-out: IC50 Value (Mean ± SD mM) PANC-1
Procedure: as §1, §2

[1] = tested on: PC-3, LNCaP, RWPE-1, A549, PANC-1, and HepG2 cells; assay: MTT cell proliferation assay, all cell lines; type: cell-based
Procedure: (§3) PC-3, LNCaP, RWPE-1, HepG2, A549, and PANC-1 cells were purchased from the National Collection of Authenticated Cell Cultures (Shanghai, China). PC-3 and A549 cells were cultured in F-12K Nutrient Mixture (Gibco, New York, NY, USA), LNCaP in RPMI 1640 (Gibco, New York, NY, USA), PANC-1 in Dulbecco’s Modified Eagle Medium (DMEM, Gibco, New York, NY, USA), and HepG2 in minimal essential medium (MEM, Gibco, New York, NY, USA). All the above cell cultures were supplied with 10% fetal bovine serum and 1% penicillin-streptomycin. RWPE-1 cells were cultured in keratinocyte serum-free medium (K-SFM, Gibco, New York, NY, USA) supplemented with 50 mg/L bovine pituitary extract and 5 μg/L epidermal growth factor (EGF). All cell lines were grown in a humidified atmosphere of 5% CO2 at 37 °C.
(§4) Cells were seeded in 100 μL complete medium in a 96-well plate, at a density of 10,000 cells/well for LNCaP and 5000 cells/well for other cells. Cells were pre-incubated for 24 h to allow for adherence before removal of complete medium and treatment with various concentrations of compounds in fetal bovine serum (FBS)-free medium for 48 h. After treatment, 20 μL/well MTT (5 mg/mL) was added and incubated for 3–4 h at 37 °C, and then 100 μL/well DMSO was added for MTT assay. The plate was shaken on an orbital shaker for 10 min. Absorbance was measured using a microplate reader at 492 nm for the MTT assay (performed in triplicates). Cell viability was normalized to control. Half inhibitory concentration (IC50) was calculated by SPSS Statistics 17.0. The combination index (CI) isobologram equation was used for the quantitative determination of the interaction between two compounds [62]:(1) Combination index CI =CA,x/ICx,A+CB,x/ICx,B where CA,x and CB,x are compound concentrations that […], and ICx,A and ICx,B are compound concentrations that provide the same effect when being used in combination. The experiments were independently repeated two to three times.

PC-3 xenograft tumors = assay: PC-3 xenograft mouse model; type: in vivo; conditions: 200 mg/kg
Procedure: Five-week-old male BALB/c nude mice were purchased from Charles River Laboratories (Beijing, China) and raised in a temperature and humidity-controlled environment (25 ± 2 °C, 50% ± 10% humidity) with a standard 12 h light-dark cycle with food and water in cages under germ-free conditions (SCXK2021-0006). All procedures involving animals and their care were approved by the Institutional Animal Care and Use Committee of the Ocean University of China in accordance with institutional and National Institutes of Health guidelines (OUC-SMP-2022-01-01). PC-3 cells (4 × 10^6 dissolved in 150 μL PBS) were injected subcutaneously into the armpit area of each mouse. For the first treatment group, when tumors reached 50 mm^3, 80 mg/kg of tryptamine dissolved in normal saline with 0.1% formic acid was administered intraperitoneally once every other day for 32 days (n = 6). […] The control groups were administrated with the vehicle. The tumor volume (mm^3) was calculated based on the formula:(2) Tumor volume (mm^3)=length×width^2/2

ovarian cancer = tested on: ovarian cancer; set-up: method as in PMID 27121207; conditions: intraperitoneal injections of 10 mg/kg; cited from earlier work
PC-3 and LNCaP cells = assay: MTT cell proliferation assay, PCa cell lines; type: cell-based; conditions: Homo sapiens, read-out: IC50 values on PCa cell lines
Procedure: as §3, §4

[2] = tested on: human castration-resistant PCa cells DU145 and PC3; set-up: method as in PMID 33945018; conditions: cited from earlier work
[3] = tested on: A549, HepG2, and PANC-1 cells; assay: MTT cell proliferation assay, other three cancer cell lines; type: cell-based; conditions: A549, HepG2, and PANC-1, text summary
Procedure: as §1, §2

[4] = Homo sapiens, PC-3, 48 h treatment in FBS-free medium
[5] = Homo sapiens, A549, 48 h treatment in FBS-free medium
[6] = Homo sapiens, HepG2, 48 h treatment in FBS-free medium
[7] = Homo sapiens, PANC-1, 48 h treatment in FBS-free medium
[8] = all cell lines tested, read-out: IC50 values for all six cell lines tested
[9] = 48 h treatment in FBS-free medium
[10] = discussion summary, all cancer cell lines tested, read-out: IC50 values in all cancer cell lines tested

Compound	IC50 (RWPE-1 cells; Homo sapiens, RWPE-1) [mM]	IC50 (PC-3 cells; [4]) [mM]	IC50 (LNCaP cells; Homo sapiens, LNCaP) [mM]	IC50 (A549 cells; [5]) [mM]	IC50 (HepG2 cells; [6]) [mM]	IC50 (PANC-1 cells; [7]) [mM]	IC50 [1, 8] [µM]	also measured
Nc1c(O)cccc1C(=O)O [3-HAA, 3-hydroxyanthranilic acid]	0.38 ± 0.01	0.9 ± 0.04	0.65 ± 0.06	0.27 ± 0.01	0.42 ± 0.02	0.41 ± 0.01	≤ 900	Effect on proliferation of RWPE-1 cells (RWPE-1 cells; concentrations between 0.03 and 0.1 mM): promoted the proliferation; tumor size (PC-3 xenograft tumors; intraperitoneal administration): No difference in tumor size; tumor size (PC-3 xenograft tumors; intratumoral administration): No difference in tumor size
Nc1c(O)cccc1C(=O)CC(N)C(=O)O (centres unmarked) [3-HK, 3-hydroxykynurenine]	–	–	–	–	–	–	≤ 900	IC50 (RWPE-1 cells): 0.36 ± 0.01 mM; IC50 (PC-3 cells; [9]): 0.55 ± 0.01 mM; IC50 (LNCaP cells): 0.29 ± 0.01 mM; IC50 (A549 cells; [9]): 0.29 ± 0.01 mM; IC50 (HepG2 cells; [9]): 0.25 ± 0.01 mM; IC50 (PANC-1 cells; [9]): 0.25 ± 0.01 mM
NCCc1c[nH]c2ccc(O)cc12 [5-HT, 5-hydroxytryptamine]	1.66 ± 0.01	1.07 ± 0.03	1.12 ± 0.04	1.89 ± 0.09	1.05 ± 0.17	1.34 ± 0.13	≥ 1000	tumor weight increase (ovarian cancer): ~60%
N[C@@H](Cc1c[nH]c2ccc(O)cc12)C(=O)O [5-HTP, 5-hydroxytryptophan]	0.85 ± 0.05	0.99 ± 0.04	1.8 ± 0.17	–	–	–	–	–
Nc1c(C(=O)O)c2nc3c(C(=O)O)cccc3oc-2cc1=O [CA, cinnabarinic acid]	0.4 ± 0.01	0.17 ± 0.01	0.24 ± 0.01	0.21 ± 0.01	0.1 ± 0.01	0.25 ± 0.04	≤ 900	–
COc1cc([C@@H]2c3cc4c(cc3[C@@H](O[C@@H]3O[C@@H]5CO[C@@H](C)O[C@H]5[C@H](O)[C@H]3O)[C@H]3COC(=O)[C@H]23)OCO4)cc(OC)c1O [Etoposide, reference compound]	0.016 ± 0.001	0.064 ± 0.001	0.032 ± 0.001	0.041 ± 0.002	0.03 ± 0.001	0.042 ± 0.001	–	–
c1ccc2[nH]ccc2c1 [Indole]	0.9 ± 0.06	0.7 ± 0.02	0.98 ± 0.02	–	–	–	–	–
O=C(O)c1cc(=O)c2ccccc2[nH]1 [KYNA, kynurenic acid]	4.39 ± 0.1	8.76 ± 1.18	9.74 ± 1.3	–	–	–	–	IC50 (PC-3 and LNCaP cells; PC-3 and LNCaP): > 5000 µM; IC50 [1, 10]: > 3000 µM; effect on DU145 and PC3 cells [2]: scarce or no effect
Nc1ccccc1C(=O)CC(N)C(=O)O (centres unmarked) [Kynurenine, kynurenine]	2.79 ± 0.05	2.02 ± 0.05	1.78 ± 0.18	2.46 ± 0.05	1.93 ± 0.03	2.63 ± 0.04	≥ 1000	–
COc1ccc2[nH]cc(CCNC(C)=O)c2c1 [Melatonin]	1.47 ± 0.1	1.28 ± 0.06	1.25 ± 0.12	2.31 ± 0.06	1.48 ± 0.1	2.02 ± 0.09	≥ 1000	–
O=C(O)c1ccccn1 [Picolinic acid]	1.48 ± 0.06	4.95 ± 0.19	5.75	–	–	–	–	–
O=C(O)c1cccnc1C(=O)O [QA, quinolinic acid]	3.2 ± 0.16	6 ± 1.32	6.83 ± 0.42	–	–	–	–	IC50 (PC-3 and LNCaP cells; PC-3 and LNCaP): > 5000 µM; IC50 [1, 10]: > 3000 µM
N[C@@H](Cc1c[nH]c2ccccc12)C(=O)O [Tryptophan]	0.76 ± 0.03	1.89 ± 0.13	6.51 ± 0.29	1.5 ± 0.15	1.54 ± 0.04	4.54 ± 0.19	–	IC50 (PC-3 and LNCaP cells; LNCaP): 1900 to 6500 µM; IC50 [3]: 1500 to 4500 µM
NCCc1ccc(O)cc1 [Tyramine, reference compound]	2.99 ± 0.08	1.53 ± 0.04	1.71 ± 0.12	3.18 ± 0.24	1.53 ± 0.05	0.77 ± 0.04	–	–
NCCc1ccccc1 [β-phenylethylamine, reference compound]	–	–	–	–	–	–	–	IC50 (RWPE-1 cells): 2.51 ± 0.19 mM; IC50 (PC-3 cells; [9]): 0.44 ± 0.01 mM; IC50 (LNCaP cells): 0.69 ± 0.06 mM; IC50 (A549 cells; [9]): 0.72 ± 0.06 mM; IC50 (HepG2 cells; [9]): 1.01 ± 0.03 mM; IC50 (PANC-1 cells; [9]): 1.47 ± 0.07 mM
